Measured values taken from ChEMBL document CHEMBL4396971, “Discovery of potent and orally bioavailable indazole-based glucagon receptor antagonists for the treatment of type 2 diabetes” (Bioorg Med Chem Lett, 2019).
pIC50, pKi: −log10 of the molar value. The source made the active and inactive calls. No cut-off for these calls is given here.

Tests used:
[1] = molecular target: T1, Cytochrome P450 3A4 (Homo sapiens, UniProt P08684); experiment: Inhibition of CYP3A4 (unknown origin) using midazolam as substrate; format: ADME
T1 sequence (P08684 whole entry): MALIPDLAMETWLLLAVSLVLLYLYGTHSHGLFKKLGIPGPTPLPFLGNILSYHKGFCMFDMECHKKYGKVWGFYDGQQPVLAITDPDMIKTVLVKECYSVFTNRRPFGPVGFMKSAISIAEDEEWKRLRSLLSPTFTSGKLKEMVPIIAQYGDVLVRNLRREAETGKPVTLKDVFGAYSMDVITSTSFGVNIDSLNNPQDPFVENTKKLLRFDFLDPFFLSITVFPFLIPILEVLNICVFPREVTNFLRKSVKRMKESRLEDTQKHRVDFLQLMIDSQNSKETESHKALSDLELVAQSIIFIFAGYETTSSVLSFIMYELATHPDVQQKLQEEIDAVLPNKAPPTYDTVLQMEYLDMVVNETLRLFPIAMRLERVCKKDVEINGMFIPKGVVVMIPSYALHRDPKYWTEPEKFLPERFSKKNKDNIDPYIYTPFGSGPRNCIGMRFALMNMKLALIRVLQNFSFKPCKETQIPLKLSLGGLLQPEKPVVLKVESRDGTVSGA

[2] = tested on: Canis familiaris; experiment: Antidiabetic activity in Beagle dog assessed as reduction in blood glucose level at 10 mg/kg, po administered via gavage as single dose 90 mins prior to glucagon challenge measured up to 60 mins post glucagon challenge by glucometer analysis; format: functional, organism-based; settings: Canis lupus familiaris
[3] = Half life in Sprague-Dawley rat at 2 mg/kg, iv; format: ADME, organism-based; settings: in vivo
[4] = AUClast in Sprague-Dawley rat at 2 mg/kg, iv or 10 mg/kg, po; format: ADME, organism-based; settings: in vivo
[5] = Half life in Sprague-Dawley rat at 10 mg/kg, po; format: ADME, organism-based; settings: in vivo
[6] = Cmax in dog at 2 mg/kg, iv or 10 mg/kg, po; format: ADME, organism-based, Canis lupus familiaris; settings: in vivo
[7] = molecular target: Cytochrome P450 2C9 (Homo sapiens, UniProt P11712); experiment: Inhibition of CYP2C9 (unknown origin) using tolbutamide as substrate; format: ADME
Cytochrome P450 2C9, sequence (P11712 whole entry): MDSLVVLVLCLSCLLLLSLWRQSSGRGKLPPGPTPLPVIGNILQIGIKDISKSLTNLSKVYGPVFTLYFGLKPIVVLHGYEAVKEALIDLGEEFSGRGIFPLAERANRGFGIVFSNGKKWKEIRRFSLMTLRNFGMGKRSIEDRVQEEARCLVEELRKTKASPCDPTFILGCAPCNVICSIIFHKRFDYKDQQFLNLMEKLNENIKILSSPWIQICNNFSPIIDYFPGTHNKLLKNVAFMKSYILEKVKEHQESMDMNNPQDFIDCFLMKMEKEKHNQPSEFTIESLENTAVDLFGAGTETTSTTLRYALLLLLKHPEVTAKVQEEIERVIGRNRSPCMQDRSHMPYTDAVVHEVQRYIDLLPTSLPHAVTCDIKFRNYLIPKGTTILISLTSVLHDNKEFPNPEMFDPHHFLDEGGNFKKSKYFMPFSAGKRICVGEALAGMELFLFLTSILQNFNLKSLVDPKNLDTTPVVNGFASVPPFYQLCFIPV

[8] = Stability in mouse liver microsomes assessed as parent compound remaining at 1 uM incubated for 10 mins; format: ADME, Microsome; settings: for remaining at 10 min, 1 µM: liver microsomes, read-out: Stability
[9] = molecular target: Cytochrome P450 2C19 (Homo sapiens, UniProt P33261); experiment: Inhibition of CYP2C19 (unknown origin) using S-Mephenytoin as substrate; format: ADME
Cytochrome P450 2C19, sequence (P33261 whole entry): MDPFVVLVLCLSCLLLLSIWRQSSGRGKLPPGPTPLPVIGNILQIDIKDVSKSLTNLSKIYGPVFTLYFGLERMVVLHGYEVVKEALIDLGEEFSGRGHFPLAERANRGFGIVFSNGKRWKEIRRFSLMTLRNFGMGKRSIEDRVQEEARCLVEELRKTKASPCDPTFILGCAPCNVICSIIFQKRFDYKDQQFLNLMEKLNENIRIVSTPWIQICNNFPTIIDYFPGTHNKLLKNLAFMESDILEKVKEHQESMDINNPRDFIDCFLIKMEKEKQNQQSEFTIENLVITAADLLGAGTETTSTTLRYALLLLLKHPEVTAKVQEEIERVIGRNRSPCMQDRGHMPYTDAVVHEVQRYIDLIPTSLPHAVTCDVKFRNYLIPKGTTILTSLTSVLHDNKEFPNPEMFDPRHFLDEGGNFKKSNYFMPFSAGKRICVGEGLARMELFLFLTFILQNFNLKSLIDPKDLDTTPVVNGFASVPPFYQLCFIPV

[10] = Volume of distribution at steady state in dog at 2 mg/kg, iv or 10 mg/kg, po; format: ADME, organism-based, Canis lupus familiaris; settings: in vivo, read-out: Vdss
[11] = Cmax in Sprague-Dawley rat at 2 mg/kg, iv or 10 mg/kg, po; format: ADME, organism-based; settings: in vivo
[12] = molecular target: Cytochrome P450 2D6 (Homo sapiens, UniProt P10635); experiment: Inhibition of CYP2D6 (unknown origin) using dextromethorphan as substrate; format: ADME
Cytochrome P450 2D6, sequence (P10635 whole entry): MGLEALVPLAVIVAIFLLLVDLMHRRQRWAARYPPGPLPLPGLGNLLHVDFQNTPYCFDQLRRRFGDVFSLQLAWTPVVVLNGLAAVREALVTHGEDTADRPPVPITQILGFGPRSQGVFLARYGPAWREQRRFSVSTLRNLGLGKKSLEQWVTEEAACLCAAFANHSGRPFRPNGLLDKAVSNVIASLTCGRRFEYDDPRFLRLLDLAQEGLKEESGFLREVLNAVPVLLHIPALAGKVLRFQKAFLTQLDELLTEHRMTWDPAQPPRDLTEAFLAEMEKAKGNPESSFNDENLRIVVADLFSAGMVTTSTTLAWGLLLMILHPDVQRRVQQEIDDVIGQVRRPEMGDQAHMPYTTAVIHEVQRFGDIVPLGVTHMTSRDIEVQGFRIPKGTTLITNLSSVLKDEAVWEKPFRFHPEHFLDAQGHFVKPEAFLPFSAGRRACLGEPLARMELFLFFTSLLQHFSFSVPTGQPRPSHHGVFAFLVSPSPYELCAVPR

[13] = Oral bioavailability in Sprague-Dawley rat at 10 mg/kg; format: ADME, organism-based; settings: in vivo
[14] = Stability in human liver microsomes assessed as parent compound remaining at 1 uM incubated for 10 mins; format: ADME, Microsome; settings: read-out: Stability
[15] = Half life in C57 mouse at 5 mg/kg, iv; format: ADME, organism-based; settings: in vivo
[16] = Volume of distribution at steady state in C57 mouse at 5 mg/kg, iv or 20 mg/kg, po; format: ADME, organism-based; settings: in vivo, read-out: Vdss
[17] = Cmax in C57 mouse at 5 mg/kg, iv or 20 mg/kg, po; format: ADME, organism-based; settings: in vivo
[18] = Antagonist activity at GCGR in dog hepatocytes assessed as inhibition of glucagon-induced cAMP by LANCE TR-FRET assay; format: cell-based, Canis lupus familiaris
[19] = Oral bioavailability in dog at 10 mg/kg; format: ADME, organism-based, Canis lupus familiaris; settings: in vivo
[20] = Half life in dog at 2 mg/kg, iv; format: ADME, organism-based, Canis lupus familiaris; settings: in vivo
[21] = Stability in dog liver microsomes assessed as parent compound remaining at 1 uM incubated for 10 mins; format: ADME, Canis lupus familiaris, Microsome; settings: liver microsomes, read-out: Stability
[22] = AUClast in C57 mouse at 5 mg/kg, iv or 20 mg/kg, po; format: ADME, organism-based; settings: in vivo
[23] = Volume of distribution at steady state in Sprague-Dawley rat at 2 mg/kg, iv or 10 mg/kg, po; format: ADME, organism-based; settings: in vivo, read-out: Vdss
[24] = molecular target: T2, Cytochrome P450 1A2 (Homo sapiens, UniProt P05177); experiment: Inhibition of CYP1A2 (unknown origin) using phenacetin as substrate; format: ADME
T2 sequence (P05177 whole entry): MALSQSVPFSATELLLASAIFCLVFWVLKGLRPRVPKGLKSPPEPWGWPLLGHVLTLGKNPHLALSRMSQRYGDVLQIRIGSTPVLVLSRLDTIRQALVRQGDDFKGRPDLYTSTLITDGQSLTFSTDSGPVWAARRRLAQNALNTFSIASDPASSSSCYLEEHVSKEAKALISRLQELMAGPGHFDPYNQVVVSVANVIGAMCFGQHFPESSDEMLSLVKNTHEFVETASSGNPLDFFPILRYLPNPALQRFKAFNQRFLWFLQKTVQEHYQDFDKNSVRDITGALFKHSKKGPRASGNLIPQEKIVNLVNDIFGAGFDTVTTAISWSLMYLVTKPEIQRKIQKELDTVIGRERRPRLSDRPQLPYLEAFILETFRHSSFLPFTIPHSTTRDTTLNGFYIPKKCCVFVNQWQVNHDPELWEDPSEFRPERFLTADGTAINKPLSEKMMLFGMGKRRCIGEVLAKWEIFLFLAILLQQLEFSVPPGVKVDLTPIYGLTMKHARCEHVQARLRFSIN

[25] = Protein binding in human plasma at 1 uM; format: ADME, cell-free; settings: read-out: PPB
[26] = Oral bioavailability in C57 mouse at 20 mg/kg; format: ADME, organism-based; settings: in vivo
[27] = AUClast in dog at 2 mg/kg, iv or 10 mg/kg, po; format: ADME, organism-based, Canis lupus familiaris; settings: in vivo
[28] = Clearance in dog at 2 mg/kg, iv or 10 mg/kg, po; format: ADME, organism-based, Canis lupus familiaris; settings: in vivo
[29] = Clearance in Sprague-Dawley rat at 2 mg/kg, iv or 10 mg/kg, po; format: ADME, organism-based; settings: in vivo
[30] = Half life in C57 mouse at 20 mg/kg, po; format: ADME, organism-based; settings: in vivo
[31] = Clearance in C57 mouse at 5 mg/kg, iv or 20 mg/kg, po; format: ADME, organism-based; settings: in vivo
[32] = molecular target: T1, Cytochrome P450 3A4; experiment: Inhibition of CYP3A4 (unknown origin) using testosterone as substrate; format: ADME
[33] = tested on: Canis familiaris; experiment: Antidiabetic activity in Beagle dog assessed as reduction in blood glucose AUC at 10 mg/kg, po administered via gavage as single dose 90 mins prior to glucagon challenge by glucometer analysis; format: functional, organism-based; settings: Canis lupus familiaris
[34] = Half life in dog at 10 mg/kg, po; format: ADME, organism-based, Canis lupus familiaris; settings: in vivo
[35] = Stability in rat liver microsomes assessed as parent compound remaining at 1 uM incubated for 10 mins; format: ADME, Microsome; settings: read-out: Stability
[36] = molecular target: T3, Glucagon receptor (Homo sapiens, UniProt P47871); experiment: Potency index, ratio of Ki of 3-(4-((1R)-1-(4-methoxy-5-(2-methyl-4-(trifluoromethyl)phenyl)-1H-indazol-1-yl)-3-methylbutyl)benzamido)propanoic acid to Ki of compound for human full length GCGR transfected in HEK293 cells assessed as reduction in glucagon-induced cAMP response by LANCE TR-FRET assay; format: functional, cell-based
T3 sequence (P47871 whole entry): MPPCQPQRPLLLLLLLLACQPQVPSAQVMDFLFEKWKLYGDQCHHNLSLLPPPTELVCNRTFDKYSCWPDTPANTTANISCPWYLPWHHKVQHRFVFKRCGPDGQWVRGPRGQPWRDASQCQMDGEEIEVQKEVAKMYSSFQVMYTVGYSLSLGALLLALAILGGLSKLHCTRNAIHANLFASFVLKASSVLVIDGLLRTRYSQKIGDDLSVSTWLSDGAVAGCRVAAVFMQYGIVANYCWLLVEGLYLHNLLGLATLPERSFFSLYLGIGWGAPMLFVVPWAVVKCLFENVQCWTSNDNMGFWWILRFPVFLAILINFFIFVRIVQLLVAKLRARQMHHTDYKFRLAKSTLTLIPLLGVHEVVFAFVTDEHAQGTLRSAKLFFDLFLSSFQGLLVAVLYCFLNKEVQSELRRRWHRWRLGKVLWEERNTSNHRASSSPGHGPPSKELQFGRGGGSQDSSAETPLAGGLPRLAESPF

[37] = tested on: Canis familiaris; experiment: Antidiabetic activity in Beagle dog assessed as reduction in blood glucose AUC administered orally via gavage as single dose 90 mins prior to glucagon challenge by glucometer analysis; format: functional, organism-based; settings: Canis lupus familiaris
[38] = molecular target: T3, Glucagon receptor; experiment: Inhibition of human full length GCGR transfected in HEK293 cells assessed as reduction in glucagon-induced cAMP response by LANCE TR-FRET assay; format: functional, cell-based

Row | pIC50 [1] | half-life [3] | AUC(0-t) [4] | half-life [5] | Cmax [6] | pIC50 [7] | remaining at 10 min, 1 µM [8] | pIC50 [9] | Vd [10] | Cmax [11] | pIC50 [12] | bioavailability [13] | remaining at 10 min, 1 µM [14] | half-life [15] | Vd [16] | Cmax [17] | pKi [18] | bioavailability [19] | remaining at 10 min, 1 µM [21] | remaining at 10 min, 1 µM [35] | Structure (SMILES) | other results
1 | < 5.00 | 1.6 h | 6.5 µM·h | 3.1 h | 27.7 µM | < 5.00 | 70% | < 5.00 | 0.22 L/kg | 0.8 µM | < 5.00 | 51.9% | 81% | 7.2 h | 0.87 L/kg | 18.9 µM | 7.52 | 39.5% | 80% | 116% | Cc1cc(C(F)(F)F)ccc1-c1cc2cnn([C@@H](CC(C)C)c3ccc(C(=O)NCCC(=O)O)cc3)c2cc1C | inhibition [2]: Active; half-life [20]: 13.3 h; AUC(0-t) [22]: 242 µM·h; Vd [23]: 2.67 L/kg; pIC50 [24]: < 5.00; fraction unbound at 1 µM [25]: 0.0001; bioavailability [26]: 70.1%; AUC(0-t) [27]: 422 µM·h; clearance [28]: 0.21 mL/min/kg; clearance [29]: 26.8 mL/min/kg; half-life [30]: 6.5 h; clearance [31]: 1.61 mL/min/kg; pIC50 [32]: < 5.00; inhibition [33]: Active; half-life [34]: 16.9 h
2 | – | – | – | – | – | – | 83% | – | – | – | – | – | 95% | – | – | – | – | – | 69% | 81% | COc1c(-c2ccc(C(F)(F)F)cc2C)ccc2c1cnn2[C@@H](CC(C)C)c1ccc(C(=O)NCCC(=O)O)cc1 | Ratio Ki [36]: 84
3 | – | – | – | – | – | – | – | – | – | – | – | – | 89% | – | – | – | – | – | 31% | 87% | Cc1c(-c2ccc(C(F)(F)F)cc2Cl)ccc2c1cnn2[C@@H](CC(C)C)c1ccc(C(=O)NCCC(=O)O)cc1 | Stability ([8]; microsomes, 10 min, 1 µM): 121%
4 | < 5.00 | 3.6 h | 5.6 µM·h | 7.1 h | 34.1 µM | < 5.00 | 99% | < 5.00 | 0.27 L/kg | 0.5 µM | < 5.00 | 35.4% | 62% | 7.8 h | 1.45 L/kg | 15.6 µM | 7.70 | 57.3% | 65% | 67% | Cc1cc2c(cnn2[C@@H](CC(C)C)c2ccc(C(=O)NCCC(=O)O)cc2)cc1-c1ccc(C(F)(F)F)cc1Cl | inhibition [2]: Active; half-life [20]: 16 h; AUC(0-t) [22]: 254 µM·h; Vd [23]: 3.32 L/kg; pIC50 [24]: < 5.00; inhibition [37]: Dose-dependent effect; fraction unbound at 1 µM [25]: 0.0001; bioavailability [26]: 121%; AUC(0-t) [27]: 544 µM·h; clearance [28]: 0.21 mL/min/kg; clearance [29]: 18.7 mL/min/kg; half-life [30]: 9.1 h; clearance [31]: 2.47 mL/min/kg; pIC50 [32]: < 5.00; inhibition [33]: Active; half-life [34]: 18.9 h
5 | < 5.00 | 3.7 h | 9.2 µM·h | 4.3 h | 35 µM | < 5.00 | 79% | < 5.00 | 0.26 L/kg | 1.1 µM | < 5.00 | 32.3% | 57% | 4.5 h | 1.56 L/kg | 7.9 µM | 6.19 | 45% | 68% | 113% | Cc1cc(C(F)(F)F)ccc1-c1cc2cn([C@@H](CC(C)C)c3ccc(C(=O)NCCC(=O)O)cc3)nc2cc1C | half-life [20]: 21.7 h; AUC(0-t) [22]: 90.1 µM·h; Vd [23]: 2.94 L/kg; pIC50 [24]: < 5.00; fraction unbound at 1 µM [25]: 0.0001; bioavailability [26]: 74.4%; AUC(0-t) [27]: 468 µM·h; clearance [28]: 0.19 mL/min/kg; clearance [29]: 12.7 mL/min/kg; half-life [30]: 5 h; clearance [31]: 4.78 mL/min/kg; pIC50 [32]: < 5.00; half-life [34]: 20.2 h
6 | – | – | – | – | – | – | 87% | – | – | – | – | – | 93% | – | – | – | – | – | 64% | 97% | COc1c(-c2ccc(C(F)(F)F)cc2Cl)ccc2c1cnn2[C@@H](CC(C)C)c1ccc(C(=O)NCCC(=O)O)cc1 | –
7 | – | – | – | – | – | – | – | – | – | – | – | – | – | – | – | – | – | – | – | – | CC(C)C[C@H](c1ccc(C(=O)NCCC(=O)O)cc1)n1ncc2cc(-c3ccc(C(F)(F)F)cc3)ccc21 | pKi [38]: 7.02
